Target: recombinant human AChE (Homo sapiens, UniProt P22303, D92N/S572N)
Type: biochemical

Sequence of recombinant human AChE (P22303 whole entry D92N/S572N, looked up): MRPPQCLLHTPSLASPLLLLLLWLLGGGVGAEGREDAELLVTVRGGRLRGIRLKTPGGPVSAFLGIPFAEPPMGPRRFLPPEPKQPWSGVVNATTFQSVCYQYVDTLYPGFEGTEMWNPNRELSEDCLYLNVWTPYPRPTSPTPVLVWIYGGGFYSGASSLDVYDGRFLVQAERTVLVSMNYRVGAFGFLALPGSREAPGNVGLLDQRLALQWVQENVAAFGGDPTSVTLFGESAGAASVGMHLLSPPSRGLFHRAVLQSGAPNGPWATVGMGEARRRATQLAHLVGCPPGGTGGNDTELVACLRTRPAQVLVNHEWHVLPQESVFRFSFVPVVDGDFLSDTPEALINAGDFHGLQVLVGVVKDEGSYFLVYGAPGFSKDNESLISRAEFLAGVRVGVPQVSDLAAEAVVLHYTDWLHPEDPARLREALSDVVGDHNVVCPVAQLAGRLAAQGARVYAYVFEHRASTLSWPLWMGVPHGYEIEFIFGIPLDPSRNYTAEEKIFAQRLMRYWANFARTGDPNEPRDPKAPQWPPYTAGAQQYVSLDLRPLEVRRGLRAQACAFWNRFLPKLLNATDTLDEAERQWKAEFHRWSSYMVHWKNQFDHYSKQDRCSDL

CCOP(=O)(OCC)Oc1ccc([N+](=O)[O-])cc1 [paraoxon]
inhibition of AChE enzyme (localized red spot): inhibited

From patent US11008554B2 (priority 2014, dated 2021)
